Laboratory results reported in article PMC2680961, “Homologous desensitization of signalling by the alpha (α) isoform of the human thromboxane A2 receptor: A specific role for nitric oxide signalling” (Biochimica et Biophysica Acta, 2007).
Residue numbers refer to the chain shown, from its start.

Tests used:
[1] = target: T1, TPα (Homo sapiens, UniProt P21731); assay: IP3 generation, HEK.TPα cells; assay type: cell-based; settings: 1 μM U46619 2 min, washout, restimulation at 60 min
T1 construct: expressed in transfected cells
T1 sequence (P21731 1-343): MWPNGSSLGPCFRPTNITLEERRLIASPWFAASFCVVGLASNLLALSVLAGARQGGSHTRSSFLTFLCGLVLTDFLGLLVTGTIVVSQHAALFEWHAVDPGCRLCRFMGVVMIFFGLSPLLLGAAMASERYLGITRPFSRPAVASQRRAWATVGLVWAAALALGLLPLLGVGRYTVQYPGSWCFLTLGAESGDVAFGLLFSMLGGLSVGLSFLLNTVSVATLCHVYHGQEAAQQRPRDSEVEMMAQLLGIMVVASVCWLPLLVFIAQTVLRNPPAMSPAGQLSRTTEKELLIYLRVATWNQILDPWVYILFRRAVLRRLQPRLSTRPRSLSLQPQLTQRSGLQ
Procedure: (§1) Intracellular IP3 levels were measured as previously described [[33,43]]. Briefly, cells were harvested by scraping, washed twice in ice-cold PBS and resuspended at approximately 2 × 10^6 cells/200 μl in HEPES-buffered saline (HBS; […], 4.7 mM KCl, 2.2 mM CaCl2, 1.2 mM KH2PO4, 11 mM glucose, 15 mM HEPES–NaOH, pH 7.4), 10 mM LiCl (Walsh et al., 2000). […] Thereafter, cells were stimulated with 1 μM U46619 at 37 °C for 2 min. To assess agonist-mediated homologous desensitization, cells (2 × 10^6 cells/200 μl) were stimulated with 1 μM U46619 at 37 °C for 2 min (Primary stimulation); thereafter, cells were collected by centrifugation (900×g, 5 min); were washed once in 200 μl HBS, 10 mM LiCl and finally resuspended in 200 μl HBS, 10 mM LiCl and were left to recover for 60 min; thereafter, cells were re-stimulated with 1 μM U46619 at 37 °C for 2 min (secondary stimulation). All ligands and […] were pre-diluted in HBS such that 50 μl added to 200 μl of cell suspension in HBS gave the desired final concentration. To determine basal IP3 levels, an equivalent volume (50 μl) of the vehicle HBS was added instead of ligand. The level of IP3 produced was quantified by radio competition assay essentially as described. […]

[2] = target: T2, TP^Δ328 (Homo sapiens, UniProt P21731); assay: IP3 generation, HEK.TP^Δ328 cells; assay type: cell-based; settings: 1 μM U46619 2 min, washout, restimulation at 60 min
T2 construct: expressed in transfected cells
T2 sequence (P21731 1-328): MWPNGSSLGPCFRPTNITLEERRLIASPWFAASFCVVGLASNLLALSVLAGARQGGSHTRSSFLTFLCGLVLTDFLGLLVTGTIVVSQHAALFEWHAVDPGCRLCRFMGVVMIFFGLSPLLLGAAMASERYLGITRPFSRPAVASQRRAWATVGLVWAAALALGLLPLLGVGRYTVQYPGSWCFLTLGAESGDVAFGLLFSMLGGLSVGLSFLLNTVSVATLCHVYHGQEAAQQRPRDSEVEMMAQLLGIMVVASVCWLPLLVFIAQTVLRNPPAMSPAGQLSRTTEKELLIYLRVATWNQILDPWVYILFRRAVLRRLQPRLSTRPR
Procedure: as §1

[3] = target: T3, TPα^S239A (Homo sapiens, UniProt P21731, S239A); assay: [3H]SQ29,548 radioligand binding, Scatchard analysis, HEK.TPα^S239A
T3 construct: expressed in transfected cells
T3 sequence (P21731 1-343 S239A): T1 sequence (P21731 1-343) with S239A
Procedure: (§2) Cells were harvested by centrifugation at 500×g at 4 °C for 5 min and washed three times with ice-cold Ca^2+/Mg^2+-free phosphate-buffered saline (PBS). TP radioligand binding assays were carried out at 30 °C for 30 min in 100 μl reactions in the presence of 0–40 nM [^3H] […] Protein determinations were carried out using the Bradford assay.
(§3) Radioligand binding and Scatchard analysis data were analysed using GraphPad Prisim V4.0 programme (GraphPad Software Inc., San Diego CA, USA). Statistical analyses were carried out using the unpaired Student's t test using the Statworks Analysis Package. p-values ≤ 0.01 indicated statistically significant differences.

[4] = target: T4, TP^S145A,Δ328 (Homo sapiens, UniProt P21731, S145A); assay: [3H]SQ29,548 radioligand binding, Scatchard analysis, HEK.TP^S145A,Δ328
T4 construct: expressed in transfected cells
T4 sequence (P21731 1-328 S145A): T2 sequence (P21731 1-328) with S145A
Procedure: as §2, §3

[5] = target: T5, TPα^S145A (Homo sapiens, UniProt P21731, S145A); assay: [3H]SQ29,548 radioligand binding, Scatchard analysis, HEK.TPα^S145A
T5 construct: expressed in transfected cells
T5 sequence (P21731 1-343 S145A): T1 sequence (P21731 1-343) with S145A
Procedure: as §2, §3

[6] = target: T6, TPβ^WT (Homo sapiens, UniProt P21731); assay: [3H]SQ29,548 radioligand binding, Scatchard analysis, HEK.TPβ^WT
T6 construct: expressed in transfected cells
T6 sequence (P21731 1-407 isoform P21731-2): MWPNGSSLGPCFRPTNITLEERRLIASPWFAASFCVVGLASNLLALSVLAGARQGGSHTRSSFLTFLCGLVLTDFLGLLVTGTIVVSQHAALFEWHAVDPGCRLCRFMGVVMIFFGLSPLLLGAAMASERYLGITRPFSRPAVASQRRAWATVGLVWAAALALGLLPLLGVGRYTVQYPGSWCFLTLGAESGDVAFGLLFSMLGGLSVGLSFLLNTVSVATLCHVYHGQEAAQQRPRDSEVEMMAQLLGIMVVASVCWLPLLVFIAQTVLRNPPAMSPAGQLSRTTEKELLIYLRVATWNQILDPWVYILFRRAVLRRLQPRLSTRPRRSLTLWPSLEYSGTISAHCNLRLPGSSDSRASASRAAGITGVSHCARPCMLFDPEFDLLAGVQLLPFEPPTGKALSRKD
Procedure: as §2, §3

Structure (SMILES): CCCCC[C@H](O)/C=C/[C@@H]1[C@@H](C/C=C\CCCC(=O)O)[C@H]2CO[C@@H]1C2 [U46619]
- IP3 generation following secondary restimulation after U46619 pre-incubation [1]: almost completely inhibited IP3 generation
- IP3 generation following secondary restimulation after U46619 pre-incubation [2]: no significant effect

Structure (SMILES): O=C(O)CCC/C=C\C[C@@H]1[C@H](CNNC(=O)Nc2ccccc2)[C@H]2CC[C@@H]1O2 [SQ29,548]
- Bmax (pmol/mg protein ± S.E.M.) [3]: 4.35 ± 0.04 pmol/mg protein
- Bmax (pmol/mg protein ± S.E.M.) [4]: 3.83 ± 0.03 pmol/mg protein
- Bmax (pmol/mg protein ± S.E.M.) [5]: 3.03 ± 0.04 pmol/mg protein
- Bmax (pmol/mg protein ± S.E.M.) [6]: 3.64 ± 0.03 pmol/mg protein
